Source: US8329745B2, “Small molecule inhibitors of ghrelin O-acyltransferase” (Board of Regents, The University of Texas System, priority 2008, dated 2012)
One block for each compound: values may come before it. Where a SMILES comes first, the peptide text is derived from it. [ ]: non-standard residue; d: D form. The star is where a group is joined. Octanoyl = CCCCCCCC(=O)*; Dap = NC[C@H](N)C(=O)O

Tests used:
mouse GOAT = molecular target: T1, mouse GOAT (Mus musculus, UniProt P0C7A3); assay: In vitro octanoylation assay: [3H]octanoyl transfer from octanoyl CoA to proghrelin-His8 by membranes of Sf9 cells expressing GOAT; type: biochemical; conditions: for inhibition of GOAT activity at high concentration: 500 μM; for inhibition of GOAT activity at high concentration / IC50 / dose response inhibition of GOAT activity in vitro: Sf9 membranes; for inhibition of GOAT activity at high concentration / IC50: mouse GOAT; for IC50: read-out: IC50 for GOAT inhibition in vitro; for GOAT inhibitory activity/potency compared with BK1114 / GOAT inhibitory activity compared with PH1147: concentration not given; for inhibition of GOAT activity (qualitative): all concentrations tested / concentration not stated; for GOAT inhibition in vitro compared with PH1147: 100 μM concentration; for dose response inhibition of GOAT activity in vitro: mouse His10-GOAT, 3% DMSO
T1 construct: made in house; host or cells: Sf9 insect cells (baculovirus); crude membrane fraction used
T1 sequence (P0C7A3 1-435): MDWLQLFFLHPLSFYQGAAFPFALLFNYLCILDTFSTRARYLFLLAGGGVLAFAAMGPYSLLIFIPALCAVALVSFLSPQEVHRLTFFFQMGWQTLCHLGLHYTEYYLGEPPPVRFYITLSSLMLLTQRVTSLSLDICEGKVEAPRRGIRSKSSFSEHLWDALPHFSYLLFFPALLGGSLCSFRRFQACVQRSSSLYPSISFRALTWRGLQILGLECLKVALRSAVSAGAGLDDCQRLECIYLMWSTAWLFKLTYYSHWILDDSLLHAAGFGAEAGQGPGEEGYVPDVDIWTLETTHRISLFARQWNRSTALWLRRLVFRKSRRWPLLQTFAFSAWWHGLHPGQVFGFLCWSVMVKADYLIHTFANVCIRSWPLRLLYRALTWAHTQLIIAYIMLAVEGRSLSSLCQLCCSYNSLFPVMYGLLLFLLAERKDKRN
Method: The assay we used is described in copending U.S. Ser No. 12/167,917, filed: Jul. 3, 2008. For baculoviral infection of insect cells, mouse GOAT cDNA was inserted into pFastBac HT-A (His10-tag) (Invitrogen), and baculovirus was generated. Sf9 insect cells were cultured, set up on day 0 at a density of 5×10^5 cells/ml, and infected on day 1 with baculovirus encoding His 10-GOAT at a density of 1×10^6 cells/ml. Cells were harvested 48 h post-infection and washed once with phosphate-buffered saline.
Each pellet of Sf9 cells (obtained from 1 liter of cell culture) was disrupted with a Dounce homogenizer (40 strokes) on ice in 50 ml of buffer containing 50 mM Tris-Cl (pH 7.0), 150 mM NaCl, 1 mM sodium EDTA, 1 mM dithiothreitol, 100 μM bis(4-nitrophenyl) phosphate, 2.5 μg/ml aprotinin, 20 μg/ml phenylmethylsulfonyl fluoride, 10 μg/ml leupeptin, and 10 μg/ml pepstatin A. After an initial centrifugation at 3,000 g for 5 min at 4° C., the supernatant was further centrifuged at 100,000 g for 30 min at 4° C. to obtain a membrane fraction, which was stored at −80° C. until the time of assay. Just prior to assay, the membranes were suspended in 50 mM HEPES-NaOH (pH 7.0) and then passed through a 22-gauge needle 10 times. After centrifugation at 1,000 g for 1 min to remove aggregated materials, the supernatant (hereafter referred as membranes) was used for assays.
Unless otherwise stated, the standard assay mixture contained 50 mM HEPES-NaOH (pH 7.0), 50 μM palmitoyl CoA or myristyl ether CoA, 50 μg membrane protein, 5 μg recombinant wild type or mutant versions of proghrelin-His8 and 1 μM [^3H]octanoyl CoA (11 dpm/fmol) in a final volume of 50 μl. […] The columns were washed at room temperature with 1 ml of buffer A followed by 3 ml of buffer A containing 25 mM imidazole. The His-tagged proghrelin was then eluted with 1 ml of buffer A containing 250 mM imidazole. Radioactivity present in the 250 mM-imidazole eluate was quantified by liquid scintillation counting.
Compounds PH1147-1152 were screened for GOAT inhibition in vitro using membrane fractions prepared from Sf9 insect cells infected with baculovirus encoding mouse GOAT. The assay (described in U.S. Ser. No. 12/167,917) measures the extent of specific acyl transfer from tritiated octanoyl CoA to recombinant His-tagged proghrelin. […] PH1147 was the simplest molecule in the set and lacked motifs present in the more complex analogs intended to be Ser2 and/or Phe4 mimetics.
(§1) Inhibition of GOAT activity by [Dap^3]octanoyl-ghrelin (1-5)-NH2 peptide and BK1114. Membranes from Sf9 cells infected with baculovirus encoding mouse His10-GOAT were prepared as previously described (Yang J, Zhao T J, Goldstein J L, Brown M S. 2008 PNAS, 105: 10750-10755). Each 50-μl reaction mixture contained 50 μg of membrane protein, 5 μg of proghrelin-His8, 50 μM palmitoyl CoA, 1 μM http[^3H]octanoyl CoA (11 dpm/fmol), and the experimental concentrations of peptide or compound in a final concentration of 3% (vol/vol) DMSO. Control values were established which represent the amount of [3H]octanoyl proghrelin formed in the absence of compound.
as §1, with “the synthetic compounds, BK1114, BK1176, BK1177” for “[Dap^3]octanoyl-ghrelin (1-5)-NH2 peptide”, “BK1183.” for “BK1114.”, “et al., 2008, supra).” for “J, Zhao T J, Goldstein J L, Brown M S. 2008 PNAS, 105: 10750-10755).”, “[^3H]octanoyl” for “http[^3H]octanoyl”, “the” for “peptide or”

GOAT = molecular target: T2, GOAT (Mus musculus, UniProt P0C7A3); assay: Inhibition of GOAT activity in intact INS-1 cells co-expressing preproghrelin and GOAT (anti-ghrelin immunoblot); type: cell-based, Rat; conditions: 5 to 10 to 20 to 50 uM inhibitor, 24 h
T2 construct: expressed in transfected cells; host or cells: rat INS-1 cells stably co-expressing preproghrelin (pCMV-preproghrelin) and GOAT-T7 (pEF-GOAT-T7)
T2 sequence (P0C7A3 1-435): T1 sequence (P0C7A3 1-435)
Method: A stably transfected INS-1 cell line co-expressing preproghrelin and GOAT was established as described below. On day 0, cells were set up at a density of 1.5×10^6/100-mm dish in medium A (RPMI-1640 medium supplemented with 10 mM HEPES, 50 μM β-mercaptoethanol, 100 U/ml penicillin, and 100 μg/ml streptomycin) containing 10% (v/v) FCS. On day 2, fresh medium was added. On day 4, the cells received a direct addition of the indicated concentration of BK1114 delivered in DMSO. The final concentration of DMSO in each dish was 0.5%. 24 h after treatment, two dishes of cells from each condition were harvested and pooled, after which peptides were extracted from the cells, fractioned on reverse-phase chromatography, and subjected to immunoblot analysis with a 1:1000 dilution of rabbit anti-ghrelin antibody as previously described (Yang J, Brown M S, Liang G, Grishin N V, Goldstein J L (2008) Identification of the acyltransferase that octanoylates ghrelin, an appetite-stimulating peptide hormone. Cell 132:387-39). Films were exposed for 1 min.
Stably transfected cell line co-expressing preproghrelin and GOAT. Rat INS-1 cells were grown in monolayer at 37° C. in 8.8% CO2 as previously described (Id.). […] Expression of proghrelin and ghrelin was assessed by immunoblot analysis. […] Expression of GOAT-T7 was assessed by immunoblot analysis.

inhibition of GOAT activity at high concentration (mouse GOAT): greatest inhibition
IC50 (mouse GOAT): ~90 µM
Compound: CCCCCCCC(O)/C=C/[C@H](NC(=O)OCc1ccccc1)C(=O)OC (stereo partly shown) [PH1147]

GOAT inhibitory activity/potency compared with BK1114 (mouse GOAT): does not perform as well as BK1114
Compound: CCCCCCCC(=O)NC[C@H](NC(=O)OCc1ccccc1)C(=O)OC [LN1111622]

GOAT inhibitory activity/potency compared with BK1114 (mouse GOAT): without compromising activity
Compound: CCCCCCCC(O)(/C=C/[C@H](NC(=O)OCc1ccccc1)C(=O)OC)CCC (stereo partly shown) [BK1165]

GOAT inhibition in vitro compared with PH1147 (mouse GOAT): roughly twice as efficacious as PH1147
dose response inhibition of GOAT activity in vitro (mouse GOAT): dose response inhibition
dose response inhibition of GOAT activity in intact cells (GOAT): dose inhibition response
Compound: CCCCCCCC(C)(O)/C=C/C(NC(=O)OCc1ccccc1)C(=O)OC (stereo not shown) [BK1114]

GOAT inhibitory activity/potency compared with BK1114 (mouse GOAT): do not improve activity
Compound: CCCCCCCC(C)(O)/C=C/[C@H](NC(=O)OCc1ccccc1)C(=O)NC(C)C (stereo partly shown) [PH1176a]

GOAT inhibition in vitro compared with PH1147 (mouse GOAT): comparably to PH1147
GOAT inhibition at higher concentrations (mouse GOAT; concentrations higher than 100 μM, compared with PH1147): performed more poorly
Compound: CCCCCCCC(=O)CC[C@H](NC(=O)OCc1ccccc1)C(=O)OC [PH1154a]

GOAT inhibitory activity/potency compared with BK1114 (mouse GOAT): comparable to BK1114
Compound: CCCCCCCC(C)(O)/C=C/[C@@H](NC(=O)OCc1ccccc1)C(=O)OC (stereo partly shown) [BK1149]

GOAT inhibitory activity/potency compared with BK1114 (mouse GOAT): do not improve activity
Compound: CCCCCCCC(C)(O)C/C=C(/NC(=O)OCc1ccccc1)C(=O)NC(C)C (stereo not shown) [PH1176b]

Further lines, the compound ahead of its results:

Compound: CCCCCCCC(C)(O)/C=C/[C@H](NC(=O)C(C)(C)CO)C(=O)N[C@@H](Cc1ccccc1)C(=O)N[C@@H](CC(C)C)C(N)=O (stereo partly shown) [BK1141]
inhibition of GOAT activity (qualitative) (mouse GOAT): retains some activity

Compound: CCCCCCCC(C)(O)/C=C/[C@H](NC(=O)C(C)(C)CO)C(=O)OC (stereo partly shown) [BK1137]
inhibition of GOAT activity (qualitative) (mouse GOAT): essentially inactive

Compound: CCCCCCCC(O)CC[C@H](NC(=O)CC(C)(C)O)C(=O)OC (stereo partly shown) [PH1149]
inhibition of GOAT activity at high concentration (mouse GOAT): inhibited GOAT activity

Compound: CCCCCCCC(=O)NC[C@H](NC(=O)[C@H](CO)NC(=O)CN)C(=O)N[C@@H](Cc1ccccc1)C(=O)N[C@@H](CC(C)C)C(N)=O [Structure 2, [Dap^3]octanoyl-ghrelin (1-5)-NH2, reference compound] (H-GS[Dap](Octanoyl)FL-NH2)
IC50 (mouse GOAT): ~1.5 µM
dose response inhibition of GOAT activity in vitro (mouse GOAT): dose response inhibition

Compound: CCCCCCCC(O)/C=C/[C@H](NC(=O)C(F)(F)F)C(=O)OC (stereo partly shown) [BK1112]
GOAT inhibitory activity compared with PH1147 (mouse GOAT): not helpful

Compound: CCCCCCCC(O)CC[C@H](NC(=O)C(C)(C)CO)C(=O)OC (stereo partly shown) [PH1150]
inhibition of GOAT activity at high concentration (mouse GOAT): inhibited GOAT activity

Compound: CCCCCCCC(O)CC[C@@H](CO)NC(=O)[C@H](C)NC(=O)CNC (stereo partly shown) [PH1167]
GOAT inhibitory activity compared with PH1147 (mouse GOAT): neither PH1159 nor PH1167 possessed activity comparable to PH1147

Compound: CCCCCCCC(C)(O)/C=C/[C@H](NC(=O)OCc1ccccc1)C(=O)N[C@@H](Cc1ccccc1)C(=O)N[C@@H](CC(C)C)C(N)=O (stereo partly shown) [BK1129]
GOAT inhibitory activity/potency compared with BK1114 (mouse GOAT): Neither was as effective as BK1114

Compound: CCC(C)(O)/C=C/[C@H](NC(=O)OCc1ccccc1)C(=O)OC (stereo partly shown) [BK1095]
inhibition of GOAT activity (qualitative) (mouse GOAT): little inhibition
